The values that follow come from article PMC9504289 (Pharmaceuticals, 2022).

“And” between values parts separate entries of the source, which are not always exact repeats. Equal values may be shown once. Read-outs that look alike come from different tables or passages of the source. Some results are limits rather than exact numbers.

For series [1], the system named is SARS-CoV-2. The settings on record: read-out: antiviral activity IC50 confirmed in a live viral or pseudoviral assay; cited from earlier work.
The target in series [2] is HCoV-NL63 S1 – hACE2 (Human coronavirus NL63, UniProt Q6Q1S2). As to the kind of experiment: biochemical. The conditions noted are these: for IC50: Inhibition of HCoV-NL63 S1 – hACE2 Binding: IC50. It is filed as binding.
Chain of HCoV-NL63 S1 – hACE2 (Q6Q1S2 19-717 limits assumed): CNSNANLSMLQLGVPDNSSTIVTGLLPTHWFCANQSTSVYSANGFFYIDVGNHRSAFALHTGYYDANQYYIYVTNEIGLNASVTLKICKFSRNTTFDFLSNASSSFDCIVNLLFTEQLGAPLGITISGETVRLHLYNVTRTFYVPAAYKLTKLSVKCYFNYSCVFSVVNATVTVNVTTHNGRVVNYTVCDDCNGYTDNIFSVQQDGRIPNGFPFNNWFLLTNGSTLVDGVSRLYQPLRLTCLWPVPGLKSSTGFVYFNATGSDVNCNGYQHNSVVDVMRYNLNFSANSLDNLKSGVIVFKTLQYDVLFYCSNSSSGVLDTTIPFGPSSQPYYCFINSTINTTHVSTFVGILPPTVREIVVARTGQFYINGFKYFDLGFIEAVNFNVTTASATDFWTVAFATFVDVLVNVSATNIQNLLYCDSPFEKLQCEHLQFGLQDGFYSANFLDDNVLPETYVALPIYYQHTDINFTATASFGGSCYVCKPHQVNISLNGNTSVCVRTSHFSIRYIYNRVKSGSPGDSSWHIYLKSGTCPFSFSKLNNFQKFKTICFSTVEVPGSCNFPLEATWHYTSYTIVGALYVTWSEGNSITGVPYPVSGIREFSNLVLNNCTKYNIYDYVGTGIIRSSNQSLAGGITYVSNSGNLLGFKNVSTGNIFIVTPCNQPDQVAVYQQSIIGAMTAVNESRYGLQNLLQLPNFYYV
Series [3] has as its system SARS-CoV-2 pseudovirus (orig. strain). Briefly: microbe, parasite or virus in culture. The class given is cell-based. The conditions noted are these: Severe acute respiratory syndrome-related coronavirus, HEK-293T, read-out: Inhibition of SARS-CoV-2 pseudovirus entry (orig. strain) IC50.
In series [4] the test system is SARS-CoV-2 pseudovirus (delta VoC). Briefly: microbe, parasite or virus in culture. The class given is cell-based.
In series [5] the test system is HEK293T cells. From the text: Figure 8 Cytotoxicity assessment. MTS cytotoxicity assay (HEK293T cells) using the same conditions as for the activity assessment (Figure 7). Data (symbols) are average ± SD of three experiments in duplicates; TC50 values shown in the legend were obtained from fitting with standard sigmoid curves as before.
Series [6] concerns the target SARS-CoV-2-S. The settings on record: read-out: KD for binding to SARS-CoV-2-S; cited from earlier work.
Series [7] deals with SARS-CoV-2. The conditions noted are these: read-out: IC50 for SARS-CoV-2 infection inhibition; cited from earlier work.
Where [8] appears, read: Severe acute respiratory syndrome-related coronavirus, HEK-293T, hACE2-expressing HEK293T, read-out: Inhibition of SARS-CoV-2 pseudovirus entry (delta VoC) IC50.
The mark [9] stands for this setting: same conditions as pseudovirus assay.

Take `CN(C)c1ccc2nc3ccc(=[N+](C)C)cc-3sc2c1` [methylene blue]: the IC50 in series [1] was […].
For `O=C(Nc1ccc(-c2ccc(C(=O)Nc3cccc4cc(S(=O)(=O)O)ccc34)cc2)cc1)c1ccc([N+](=O)[O-])cc1` [DRI-C23041], the “loss of activity compared to the SARS-CoV assays” value in series [2] was 2–5 fold. The IC50 is 4.16 µM in series [2]; 4.71 µM in series [3] (hACE2-expressing HEK293T); 5.42 µM in series [4] (setting [8]); 6.31 µM in series [4] (read-out: Inhibition of SARS-CoV-2 pseudovirus entry (delta VoC) IC50, hACE2-expressing HEK293T); below 30 µM in series [1]. Besides, the “Cytotoxicity (HEK293T cells, MTS): TC50” value in series [5] (setting [9]) was above 1000.00 µM.
As to `O=C(Nc1ccc2cc(C(=O)Nc3cccc4cccc(S(=O)(=O)O)c34)ccc2c1)c1ccc([N+](=O)[O-])cc1` [DRI-C41041], the figures for the IC50 in series [3] (hACE2-expressing HEK293T) and in series [4] (setting [8]) were above 500 µM and 27.7 µM, respectively. In addition, the “Cytotoxicity (HEK293T cells, MTS): TC50” value in series [5] (setting [9]) was above 1000.00 µM.
On to `O=S(=O)(O)c1ccc(/N=N/c2c(O)ccc3cc(S(=O)(=O)O)ccc23)cc1` [Sunset yellow, sunset yellow FCF], for which the IC50 in series [2], in series [3] (hACE2-expressing HEK293T) and in series [4] (setting [8]) was above 500 µM in each case. In addition, the “Cytotoxicity (HEK293T cells, MTS): TC50” value in series [5] (human) was above 1000.00 µM.
As to `Nc1c(/N=N/c2ccc(-c3ccc(/N=N/c4cc(S(=O)(=O)O)c5ccccc5c4N)cc3)cc2)cc(S(=O)(=O)O)c2ccccc12` [Congo red], the IC50 in series [2] is < 3 µM and 2.26 µM; in series [3] (hACE2-expressing HEK293T), 20.3 µM; in series [4] (setting [8]), 3.07 µM; in series [1], below 30 µM. In series [5] (same conditions as pseudovirus assay, listed as CgRd), the “Cytotoxicity (HEK293T cells, MTS): TC50” value is 130 µM and 130.40 µM.
Take `C=C(C)[C@@H]1CCC(C)=C[C@H]1c1c(O)cc(CCCCC)c(C(=O)O)c1O` [cannabidiolic acid]: the IC50 in series [1] was below 30 µM.
`Nc1ccc2cc(S(=O)(=O)O)cc(O)c2c1/N=N/c1ccc(-c2ccc(/N=N/c3c(N)ccc4cc(S(=O)(=O)O)cc(O)c34)cc2)cc1` [Direct violet 1, direct violet 1]: the IC50 in series [2] is < 3 µM and 2.29 µM; in series [3] (hACE2-expressing HEK293T), 35.8 µM; in series [4] (setting [8]), 2.97 µM; in series [1] it was below 30 µM. Also, the “Cytotoxicity (HEK293T cells, MTS): TC50” value in series [5] (same conditions as pseudovirus assay, listed as DV1) is 110 µM and 110.10 µM.
As to `Nc1c(/N=N/c2ccc([N+](=O)[O-])cc2)c(S(=O)(=O)O)cc2cc(S(=O)(=O)O)c(/N=N/c3ccccc3)c(O)c12` [Naphthol blue black, naphthol blue black], the IC50 in series [2] is 58.7 µM; in series [3] (hACE2-expressing HEK293T), above 500 µM; in series [4] (setting [8]), 174 µM. In addition, in series [5] (human), the “Cytotoxicity (HEK293T cells, MTS): TC50” value was above 1000.00 µM.
Take `O=C(Nc1ccc(-c2ccc(C(=O)Nc3ccc(S(=O)(=O)O)c4cccc(S(=O)(=O)O)c34)cc2)cc1)c1ccc([N+](=O)[O-])cc1` [DRI-C2105041]: the IC50 in series [3] (hACE2-expressing HEK293T) was determined as 217 µM; in series [4] (setting [8]) it was 26.9 µM. Further, the “Cytotoxicity (HEK293T cells, MTS): TC50” value in series [5] (setting [9]) was above 1000.00 µM.
For the compound `Cc1cc(-c2ccc(/N=N/c3ccc4c(S(=O)(=O)O)cc(S(=O)(=O)O)c(N)c4c3O)c(C)c2)ccc1/N=N/c1ccc2c(S(=O)(=O)O)cc(S(=O)(=O)O)c(N)c2c1O` [Evans blue], the IC50 was < 3 µM and 2.6 µM in series [2]; 16.6 µM in series [3]; 25.4 µM in series [4] (Severe acute respiratory syndrome-related coronavirus, HEK-293T, read-out: Inhibition of SARS-CoV-2 pseudovirus entry (delta VoC) IC50, hACE2-expressing HEK293T); 28.1 µM in series [7]; below 30 µM in series [1]. Besides, in series [5] (same conditions as pseudovirus assay, listed as EvBl), the “Cytotoxicity (HEK293T cells, MTS): TC50” value was 439 µM and 439.20 µM. Also, in series [6], the Kd – broadly, the constant that tells how readily two partners part at equilibrium – is 2200 nM.
For `CCCCCc1cc(O)c(C/C=C(\C)CCC=C(C)C)c(O)c1C(=O)O` [cannabigerolic acid], the IC50 in series [1] was below 30 µM.
Regarding `O=C(Nc1ccc(-c2ccc(C(=O)Nc3cccc4c(S(=O)(=O)O)cccc34)cc2)cc1)c1ccc([N+](=O)[O-])cc1` [DRI-C24041], the “loss of activity compared to the SARS-CoV assays” value in series [2] was 2–5 fold. In addition, the IC50 in series [2] was found to be 6.54 µM; in series [3] (hACE2-expressing HEK293T), 6.58 µM; in series [4] (setting [8]), 7.76 µM. In series [5] (setting [9]), the “Cytotoxicity (HEK293T cells, MTS): TC50” value is > 600 µM and 617.90 µM.
Turning to verteporfin, the IC50 in series [1] was below 30 µM.
